Data on 22 molecules can be found in patent US11446287B2, “Compounds and methods for EP300 or CBP modulation and indications therefor” (Opna Immuno-Oncology SA, priority 2019, dated 2022).

The target in this assay is T1, Recombinant human EP300 containing the bromodomain (EP300-BD (1040-1161)) (Homo sapiens, UniProt Q09472).
T1 construct: Recombinant human EP300 bromodomain (EP300-BD (1040-1161)); made in house; host or cells: E. coli BL21-CodonPlus (DE3), modified pET vector
T1 sequence (Q09472 1040-1161): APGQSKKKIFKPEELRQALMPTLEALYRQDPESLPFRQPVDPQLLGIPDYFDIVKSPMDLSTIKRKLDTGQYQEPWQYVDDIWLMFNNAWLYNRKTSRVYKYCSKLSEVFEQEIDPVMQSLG
Nature of the assay: EP300 Alphascreen binding assay. The protocol: EP300 Alphascreen Binding Assay
Binding of compounds of Formula (I) with EP300 was assessed using Alphascreen™ binding assay. The inhibition of the interaction between the EP300 bromodomain and its acetylated target protein was measured quantitatively using recombinant EP300 protein, an acetylated Histone 3 peptide and AlphaScreen™ technology. In absence of inhibition of the EP300 protein bound to AlphaScreen™ nickel chelate acceptor beads can interact with the acetylated Histone 3 peptide which is immobilized by the AlphaScreen™ Streptavidin coated beads. This interaction brings donor and acceptor beads in proximity. The close proximity allows the singlet oxygen produced by laser excitation of the donor beads to reach the acceptor beads and generate a luminescence signal. EP300 inhibitors result in a decrease in the proximity signal through an inhibition of the EP300—acetylated peptide interaction.
Recombinant human EP300 containing the bromodomain (EP300-BD (1040-1161)) was prepared and purified as described in protein expression and purification session. The peptide is human Histone H345-64K56Ac-Biotin (Anaspec CA, USA).
Protocol for EP300 assay: All components were prepared in buffer composed of 50 mM HEPES pH 7.5, 50 mM NaCl, 0.01% BSA, 0.01% Triton X-100, 2 mM DTT. Test compounds and DMSO vehicle were diluted 1:50 in buffer and a 4 μL volume is transferred to an Alphaplate. 5.5 μL of EP300 protein and 5.5 μL of peptide were added to wells containing 4 μL of various concentrations of test compounds of Formula (I) or DMSO vehicle in an Alphaplate (PerkinElmer GA, USA) and incubated for 1 hour at room temperature. 5 μL donor and acceptor bead mixture was then added with final concentrations of 7.5 μg/ml. 60 minutes after bead addition, Alpha signal is read on the Envision spectrometer (λEx 680 nm, λEm 520-620 nm). Final concentrations of bromodomain proteins and peptide are as shown below.
All data were normalized to the mean of 16 high and 16 low control wells on each plate. A four parameter curve fit of the following formula was then applied: Y=A+((B−A)/(1+((C/x)^D))) Where ‘A’ is the minimum, ‘B’ is the maximum, ‘C’ is the IC50 and ‘D’ is the Hill slope. Protein Expression and Purification
Recombinant human EP300 bromodomain (EP300-BD (1040-1161)) was expressed in E. coli cells (in a modified pET vector) with an N-terminal six-His tag and purified using a combination of both IMAC (Ni-affinity) and size exclusion chromatography steps.
Recombinant EP300 protein was expressed using the E. coli strain BL21-CodonPlus (DE3) (Agilent Technologies CA, USA). Cells were grown in Terrific Broth (TB) media to an OD600 of 0.7 at 37° C. at which temperature was reduced to 18° C., protein was induced with 1.0 mM isopropyl-β-D-thiogalactopyranoside (“IPTG”) for 20 hours and harvested by centrifugation at 8500×g for 20 minutes. Cells were re-suspended in 0.1M K2PO4 pH 8.0, 250 mM NaCl, 10% Glycerol, 0.75% NP-40, 25 mM Imidazole, with 0.2 mg/ml Lysozyme, 0.2 mM phenylmethanesulfonyl fluoride (“PMSF”), 25 μg/ml DNase I, incubated on ice for 30 minutes and lysed with a cell disruptor (MicroFluidics MA, USA). The lysate was clarified by centrifugation at 20,000×g for 1 hour. The protein was captured with Ni-NTA resin (Life Technologies, USA). Contaminating proteins were washed off with 50 mM HEPES pH 7.5, 500 mM NaCl, and 5% Glycerol. Following 3× wash steps, protein was eluted step wise using 10, 25, 50, 100, 150, and 250 mM Imidazole in 50 mM HEPES pH 7.5, 500 mM NaCl, and 5% glycerol. The protein was further purified using a size exclusion column (26/600 Superdex 200, GE Biosciences NJ, USA) in 10 mM HEPES pH 7.5, […].

As for `COc1cc(C(=O)O)cc(OCc2ccccc2)c1-c1cn([C@@H](C)c2ccccn2)c2ncc(-c3c(C)noc3C)cc12` [P-0135, (S)-3-(benzyloxy)-4-(5-(3,5-dimethylisoxazol-4-yl)-1-(1-(pyridin-2-yl)ethyl)-1H-pyrrolo[2,3-b]pyridin-3-yl)-5-methoxybenzoic acid], the IC50 is 0.0001 to 1 µM.

Consider `COc1c(C(=O)O)cccc1-c1cn(C(C)c2ccccc2)c2cc(-c3c(C)noc3C)cnc12` (stereo not shown) [P-0136, 3-(6-(3,5-dimethylisoxazol-4-yl)-1-(1-phenylethyl)-1H-pyrrolo[3,2-b]pyridin-3-yl)-2-methoxybenzoic acid], for which the IC50 lay within 0.0001 to 1 µM.

Take `Cc1noc(C)c1-c1cnc2c(c1)c(-c1ccc(C(=O)O)cc1OC1COC1)cn2[C@@H](C)c1ccccn1` [P-0137, (S)-4-(5-(3,5-dimethylisoxazol-4-yl)-1-(1-(pyridin-2-yl)ethyl)-1H-pyrrolo[2,3-b]pyridin-3-yl)-3-(oxetan-3-yloxy)benzoic acid]: the IC50 is 0.0001 to 1 µM. Take `Cc1noc(C)c1-c1cnc2c(c1)c(-c1ccc(C(=O)O)cc1OCC1CC1)cn2[C@@H](C)c1ccccn1` [P-0138, (S)-3-(cyclopropylmethoxy)-4-(5-(3,5-dimethylisoxazol-4-yl)-1-(1-(pyridin-2-yl)ethyl)-1H-pyrrolo[2,3-b]pyridin-3-yl)benzoic acid]: the IC50 was 0.0001 to 1 µM. `Cc1noc(C)c1-c1cnc2c(c1)c(-c1ccc(C(=O)O)cc1OCc1ccccc1)cn2[C@@H](C)c1ccccn1` [P-0139, (S)-3-(benzyloxy)-4-(5-(3,5-dimethylisoxazol-4-yl)-1-(1-(pyridin-2-yl)ethyl)-1H-pyrrolo[2,3-b]pyridin-3-yl)benzoic acid]: the half-inhibitory concentration (IC50) was 0.0001 to 1 µM. Turning to `COc1ccc(C(=O)O)cc1-c1cn(C(C)c2ccccc2)c2cc(-c3c(C)noc3C)cnc12` (stereo not shown) [P-0140, 3-(6-(3,5-dimethylisoxazol-4-yl)-1-(1-phenylethyl)-1H-pyrrolo[3,2-b]pyridin-3-yl)-4-methoxybenzoic acid], the IC50 lay in the range of 0.0001 to 1 µM. To `Cc1noc(C)c1-c1cnc2c(-c3cc(C(=O)O)ccc3Cl)cn(C(C)c3ccccc3)c2c1` (stereo not shown) [P-0141, 4-chloro-3-(6-(3,5-dimethylisoxazol-4-yl)-1-(1-phenylethyl)-1H-pyrrolo[3,2-b]pyridin-3-yl)benzoic acid] belongs 0.0001 to 1 µM; to `COc1cc(C(=O)O)ccc1-c1cn([C@@H](C)c2ccccn2)c2cc(-c3c(C)noc3C)cnc12` [P-0142, (S)-4-(6-(3,5-dimethylisoxazol-4-yl)-1-(1-(pyridin-2-yl)ethyl)-1H-pyrrolo[3,2-b]pyridin-3-yl)-3-methoxybenzoic acid], 0.0001 to 1 µM.

Turning to `Cc1noc(C)c1-c1cnc2c(CC3CCC3)cn(-c3ccc(O)nc3)c2c1` [P-0143, 5-(3-(cyclobutylmethyl)-6-(3,5-dimethylisoxazol-4-yl)-1H-pyrrolo[3,2-b]pyridin-1-yl)pyridin-2-ol], the IC50 fell in the range of 1 to 8 µM. The figure for `COc1cc(C(=O)O)cc(O)c1-c1cn([C@@H](C)c2ccccn2)c2ncc(-c3c(C)noc3C)cc12` [P-0144, (S)-4-(5-(3,5-dimethylisoxazol-4-yl)-1-(1-(pyridin-2-yl)ethyl)-1H-pyrrolo[2,3-b]pyridin-3-yl)-3-hydroxy-5-methoxybenzoic acid] is 0.0001 to 1 µM. To `Cc1noc(C)c1-c1cnc2c(c1)c(-c1ccnc(O)c1)cn2[C@@H](C)c1ccccn1` [P-0145, (S)-4-(5-(3,5-dimethylisoxazol-4-yl)-1-(1-(pyridin-2-yl)ethyl)-1H-pyrrolo[2,3-b]pyridin-3-yl)pyridin-2-ol] belongs 1 to 8 µM; to `COc1cc(C(=O)O)cc(OC)c1-c1cn([C@@H](C)c2ccccn2)c2cc(-c3c(C)noc3C)cnc12` [P-0146, (S)-4-(6-(3,5-dimethylisoxazol-4-yl)-1-(1-(pyridin-2-yl)ethyl)-1H-pyrrolo[3,2-b]pyridin-3-yl)-3,5-dimethoxybenzoic acid], 1 to 8 µM; to `CCOc1cc(C(=O)O)cc(OCC)c1-c1cn([C@@H](C)c2ccccn2)c2ncc(-c3c(C)noc3C)cc12` [P-0147, (S)-4-(5-(3,5-dimethylisoxazol-4-yl)-1-(1-(pyridin-2-yl)ethyl)-1H-pyrrolo[2,3-b]pyridin-3-yl)-3,5-diethoxybenzoic acid], 0.0001 to 1 µM. Consider `CC[C@@H](c1ccccn1)n1cc(-c2cc(C(=O)O)ccc2Cl)c2ncc(-c3c(C)noc3C)cc21` [P-0148, (S)-4-chloro-3-(6-(3,5-dimethylisoxazol-4-yl)-1-(1-(pyridin-2-yl)propyl)-1H-pyrrolo[3,2-b]pyridin-3-yl)benzoic acid], for which the IC50 is 0.0001 to 1 µM.

Regarding `Cc1noc(C)c1-c1cc2c(cn1)c(CC1CCC1)cn2-c1c(Cl)cc(C(=O)O)cc1Cl` [P-0149, 3,5-dichloro-4-(3-(cyclobutylmethyl)-6-(3,5-dimethylisoxazol-4-yl)-1H-pyrrolo[3,2-c]pyridin-1-yl)benzoic acid], the IC50 was 0.0001 to 1 µM. The figure for `Cc1noc(C)c1-c1cnc2c(-c3ccccc3)cn(-c3c(Cl)cc(C(=O)O)cc3Cl)c2c1` [P-0150, 3,5-dichloro-4-(6-(3,5-dimethylisoxazol-4-yl)-3-phenyl-1H-pyrrolo[3,2-b]pyridin-1-yl)benzoic acid] is 0.0001 to 1 µM; for `Cc1noc(C)c1-c1cnc2c(C3=CCOCC3)cn(-c3c(Cl)cc(C(=O)O)cc3Cl)c2c1` [P-0151, 3,5-dichloro-4-(3-(3,6-dihydro-2H-pyran-4-yl)-6-(3,5-dimethylisoxazol-4-yl)-1H-pyrrolo[3,2-b]pyridin-1-yl)benzoic acid] it is 0.0001 to 1 µM.

With `COc1cc(C(=O)O)cc(OCC2CC2)c1-c1cn([C@@H](C)c2ccccn2)c2ncc(-c3c(C)noc3C)cc12` [P-0152, (S)-3-(cyclopropylmethoxy)-4-(5-(3,5-dimethylisoxazol-4-yl)-1-(1-(pyridin-2-yl)ethyl)-1H-pyrrolo[2,3-b]pyridin-3-yl)-5-methoxybenzoic acid], the IC50 lay in the range of 0.0001 to 1 µM. Turning to `COc1cc(C(=O)O)cc(OCC(F)(F)F)c1-c1cn([C@@H](C)c2ccccn2)c2ncc(-c3c(C)noc3C)cc12` [P-0153, (S)-4-(5-(3,5-dimethylisoxazol-4-yl)-1-(1-(pyridin-2-yl)ethyl)-1H-pyrrolo[2,3-b]pyridin-3-yl)-3-methoxy-5-(2,2,2-trifluoroethoxy)benzoic acid], the IC50 is 0.0001 to 1 µM. With `Cc1noc(C)c1-c1cnc2c(-c3ccc(C(=O)O)cc3)c(C(F)(F)F)n([C@@H](C)c3ccccn3)c2c1` [P-0154, (S)-4-(6-(3,5-dimethylisoxazol-4-yl)-1-(1-(pyridin-2-yl)ethyl)-2-(trifluoromethyl)-1H-pyrrolo[3,2-b]pyridin-3-yl)benzoic acid], the IC50 is 0.0001 to 1 µM. In the case of `Cc1noc(C)c1-c1cnc2c(-c3ccccc3Cl)cn(C(C)(c3ccccn3)c3ccccn3)c2c1` [P-0155, 4-(3-(2-chloropheny1)-1-(1,1-di(pyridin-2-yl)ethyl)-1H-pyrrolo[3,2-b]pyridin-6-yl)-3,5-dimethylisoxazole], the IC50 lay in the range of 0.0001 to 1 µM. To `Cc1noc(C)c1-c1cnc2c(c1)c(-c1ccc(C(=O)O)cc1OC(F)(F)F)cn2C(C1CC1)C1CC1` [P-0156, 4-(1-(dicyclopropylmethyl)-5-(3,5-dimethylisoxazol-4-yl)-1H-pyrrolo[2,3-b]pyridin-3-yl)-3-(trifluoromethoxy)benzoic acid] belongs 0.0001 to 1 µM.

The term IC50 denotes the midpoint of a concentration-inhibition curve.
